{"source": "the NIST ThermoML archive (doi:10.1016/j.jct.2018.03.027)", "assay": "mn = molality of the nth substance listed, in mol/kg", "details": "100 kPa, Liquid, Pycnometric method", "note": "± gives the expanded uncertainty stated by the source.", "data": [{"smiles": "O=C([O-])[O-].[Li+].[Li+]", "note": "[lithium carbonate] + O", "values": [{"measurement": "mass density", "setting": "283.15 K, m1 = 0.1933", "result": "1007.2 ± 4", "unit": "kg/m3"}, {"measurement": "mass density", "setting": "298.15 K, m1 = 0.1738", "result": "1003.8 ± 4", "unit": "kg/m3"}, {"measurement": "mass density", "setting": "303.15 K, m1 = 0.1676", "result": "1002.2 ± 4", "unit": "kg/m3"}, {"measurement": "mass density", "setting": "313.15 K, m1 = 0.1558", "result": "998.3 ± 4", "unit": "kg/m3"}, {"measurement": "mass density", "setting": "323.15 K, m1 = 0.1454", "result": "993.7 ± 4", "unit": "kg/m3"}, {"measurement": "mass density", "setting": "333.15 K, m1 = 0.1352", "result": "988.5 ± 4", "unit": "kg/m3"}, {"measurement": "mass density", "setting": "343.15 K, m1 = 0.1251", "result": "982.6 ± 4", "unit": "kg/m3"}, {"measurement": "mass density", "setting": "353.15 K, m1 = 0.1149", "result": "976.2 ± 4", "unit": "kg/m3"}, {"measurement": "mass density", "setting": "363.15 K, m1 = 0.106", "result": "969.4 ± 4", "unit": "kg/m3"}, {"measurement": "mass density", "setting": "368.15 K, m1 = 0.1015", "result": "965.2 ± 4", "unit": "kg/m3"}]}]}
